Test results published in patent US8703771B2, “Preparation method of dihydroindene amide compounds, their pharmaceutical compositions containing compounds thereof and use as protein kinases inhibitor” (Harbin Gloria Pharmaceuticals Co., Ltd., priority 2008, dated 2014).
Structures can show the parent of a compound that is named as a salt. Where two headings read alike, the source gives them in different places.

What was measured:
[1] = target: T1, c-Kit (Homo sapiens (Human), UniProt P10721); experiment: Mobility Shift Assay of c-Kit kinase enzyme activity; format: biochemical; conditions: ATP at Km 87 μM, 40 minutes at 28° C., pre-activated c-Kit
T1 sequence (P10721 26-976): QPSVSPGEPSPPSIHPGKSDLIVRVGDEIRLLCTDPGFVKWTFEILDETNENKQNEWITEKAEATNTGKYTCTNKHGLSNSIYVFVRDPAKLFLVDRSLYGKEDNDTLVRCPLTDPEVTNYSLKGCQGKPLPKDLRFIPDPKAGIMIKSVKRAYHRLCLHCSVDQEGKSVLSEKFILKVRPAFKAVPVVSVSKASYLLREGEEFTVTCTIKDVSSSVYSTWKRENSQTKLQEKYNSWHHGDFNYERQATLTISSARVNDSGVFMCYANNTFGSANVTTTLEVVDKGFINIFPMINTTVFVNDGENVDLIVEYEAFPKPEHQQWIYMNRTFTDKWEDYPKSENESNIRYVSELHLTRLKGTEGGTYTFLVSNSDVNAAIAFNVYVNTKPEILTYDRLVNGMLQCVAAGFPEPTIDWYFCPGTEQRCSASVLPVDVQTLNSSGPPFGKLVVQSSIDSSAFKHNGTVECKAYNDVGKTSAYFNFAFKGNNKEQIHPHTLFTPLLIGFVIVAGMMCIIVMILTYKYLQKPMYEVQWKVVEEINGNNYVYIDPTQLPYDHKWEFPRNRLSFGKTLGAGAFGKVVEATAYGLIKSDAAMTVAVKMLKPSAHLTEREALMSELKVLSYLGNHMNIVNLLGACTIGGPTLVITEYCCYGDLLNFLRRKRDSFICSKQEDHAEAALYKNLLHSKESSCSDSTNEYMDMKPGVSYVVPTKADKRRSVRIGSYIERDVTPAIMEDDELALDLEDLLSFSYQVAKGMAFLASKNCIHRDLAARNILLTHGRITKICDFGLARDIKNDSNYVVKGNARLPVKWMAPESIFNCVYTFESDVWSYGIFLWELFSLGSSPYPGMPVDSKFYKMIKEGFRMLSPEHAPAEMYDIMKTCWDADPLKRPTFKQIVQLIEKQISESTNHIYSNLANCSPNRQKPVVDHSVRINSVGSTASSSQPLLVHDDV
Description: (§1) The activity of the compounds of this invention on Abl, c-Kit and PDGFR kinases was tested by Mobility Shift Assay (MSA).
(§2) • 1. Preparation of kinase buffer and stop buffer;
(§3) The compound was dissolved in DMSO and then serial dilutions were prepared; • 3. Preparation of kinase solution: Kinase solution was obtained by dissolving kinases in the kinase buffer mentioned above. With regard to c-Kit kinase, the pre-activation treatments should be carried out as follows. 700 nM c-Kit, 2 mM ATP, 4 mM DTT and 10 mM MgCl2 were dissolved in kinase buffer. After being incubated at 28° C. for 15 minutes, the solution was added to the kinase buffer; • 4. Preparation of polypeptide solution: Polypeptide FAM and ATP were dissolved in kinase buffer; • 5. The kinase solution was transferred to a culture plate and incubated for 10 minutes at room temperature. […] The polypeptide solution was transferred to the culture plate. […] The final concentrations of MgCl2 in all circumstances were all 10 mM; • 7. The mixture in each well of the plate was incubated at 28° C., for 1 hour for Abl, 40 minutes for c-Kit and 5 hours for PDGFR. The stop buffer was then added to terminate the reaction; • 8. Data were collected in Caliper and then input into the software XLfit to calculate IC50 values.

[2] = target: PDGFR (Homo sapiens); experiment: Mobility Shift Assay of PDGFR kinase enzyme activity; format: biochemical; conditions: ATP at Km 38 μM, 5 hours at 28° C.
PDGFR (Homo sapiens), sequence (P09619 33-1106 limits assumed): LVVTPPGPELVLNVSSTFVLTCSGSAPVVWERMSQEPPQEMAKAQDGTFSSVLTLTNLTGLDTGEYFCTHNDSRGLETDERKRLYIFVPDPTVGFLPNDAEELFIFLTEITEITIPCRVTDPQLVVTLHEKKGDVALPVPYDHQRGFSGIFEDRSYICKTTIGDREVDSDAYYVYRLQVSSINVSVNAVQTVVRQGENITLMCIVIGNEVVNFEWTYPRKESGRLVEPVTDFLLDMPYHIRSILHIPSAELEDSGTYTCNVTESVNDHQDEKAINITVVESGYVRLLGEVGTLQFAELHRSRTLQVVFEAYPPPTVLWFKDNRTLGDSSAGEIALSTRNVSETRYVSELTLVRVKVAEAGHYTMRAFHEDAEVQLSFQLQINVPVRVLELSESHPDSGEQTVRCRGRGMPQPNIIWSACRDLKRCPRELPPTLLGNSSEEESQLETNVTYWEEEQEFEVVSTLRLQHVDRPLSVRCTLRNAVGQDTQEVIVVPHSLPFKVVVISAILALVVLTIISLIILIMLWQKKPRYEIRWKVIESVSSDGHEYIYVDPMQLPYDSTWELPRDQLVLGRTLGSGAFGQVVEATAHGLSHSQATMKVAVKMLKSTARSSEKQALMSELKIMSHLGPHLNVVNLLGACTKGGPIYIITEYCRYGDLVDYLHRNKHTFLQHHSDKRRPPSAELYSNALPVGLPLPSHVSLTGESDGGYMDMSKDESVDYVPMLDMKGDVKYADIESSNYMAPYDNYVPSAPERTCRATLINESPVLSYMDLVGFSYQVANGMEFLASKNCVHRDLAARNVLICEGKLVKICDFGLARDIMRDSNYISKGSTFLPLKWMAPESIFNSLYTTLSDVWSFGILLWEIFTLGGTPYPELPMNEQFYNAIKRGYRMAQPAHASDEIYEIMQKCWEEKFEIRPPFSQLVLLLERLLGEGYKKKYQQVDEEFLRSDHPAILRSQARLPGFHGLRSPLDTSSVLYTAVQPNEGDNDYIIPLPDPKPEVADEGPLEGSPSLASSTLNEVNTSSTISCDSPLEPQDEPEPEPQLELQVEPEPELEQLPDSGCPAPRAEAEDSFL
Description: as §1, §2, §3

[3] = target: T1, c-Kit; experiment: 33P-ATP kinase assay, c-Kit; format: biochemical; conditions: 33P-ATP assay; ATP concentration 30 μM; 2 mM MnCl2 in buffer
Description: (§4) Inhibitory activity of the compounds of this invention on Abl, c-Kit and PDGFR mutant kinases was tested by the phosphor isotope-labelled ATP (^33P-ATP) assay. • 1. Substrate solution was prepared using newly-prepared reaction buffer. The buffer includes: 20 mM HEPES, pH 7.5, 10 mM MgCl2, 1 mM EGTA, 0.02% Brij 35, 0.02 mg/ml BSA, 0.1 mM Na3VO4, 2 mM DTT, 1% DMSO. […] Required co-enzymes were added to the above substrate solution; • 3. Kinases were added and mixed gently; • 4. The tested compound was dissolved in DMSO, and then added to the above kinase solution by using Acoustic technique (Echo550, nanoliter range) and incubated for 20 minutes; • 5. ^33P-ATP was added to the above reaction mixture to initiate the reaction; • 6. The mixture was incubated for 2 hours at room temperature; • 7. The activity of kinases was tested by filtration-combination; • 8. The data were processed in Excel and the control data were subtracted. A curve was drawn by the GraphPad Prism software to get the IC50 value.

[4] = target: c-Kit (D816H) (Homo sapiens (Human), UniProt P10721, D816H); experiment: 33P-ATP kinase assay, c-Kit (D816H); format: biochemical; conditions: 33P-ATP assay; ATP concentration 30 μM
c-Kit (D816H), sequence (P10721 26-976 D816H): as the sequence (P10721 26-976) above, with D791H counted along it
Description: as §4

[5] = target: c-Kit (D816V) (Homo sapiens (Human), UniProt P10721, D816V); experiment: 33P-ATP kinase assay, c-Kit (D816V); format: biochemical; conditions: 33P-ATP assay; ATP concentration 30 μM
c-Kit (D816V), sequence (P10721 26-976 D816V): as the sequence (P10721 26-976) above, with D791V counted along it
Description: as §4

[6] = target: c-Kit (T670I) (Homo sapiens (Human), UniProt P10721, T670I); experiment: 33P-ATP kinase assay, c-Kit (T670I); format: biochemical; conditions: 33P-ATP assay; ATP concentration 30 μM
c-Kit (T670I), sequence (P10721 26-976 T670I): as the sequence (P10721 26-976) above, with T645I counted along it
Description: as §4

[7] = target: c-Kit (V560G) (Homo sapiens (Human), UniProt P10721, V560G); experiment: 33P-ATP kinase assay, c-Kit (V560G); format: biochemical; conditions: 33P-ATP assay; ATP concentration 30 μM
c-Kit (V560G), sequence (P10721 26-976 V560G): as the sequence (P10721 26-976) above, with V535G counted along it
Description: as §4

[8] = target: c-Kit (V654A) (Homo sapiens (Human), UniProt P10721, V654A); experiment: 33P-ATP kinase assay, c-Kit (V654A); format: biochemical; conditions: 33P-ATP assay; ATP concentration 30 μM; 2 mM MnCl2 in buffer
c-Kit (V654A), sequence (P10721 26-976 V654A): as the sequence (P10721 26-976) above, with V629A counted along it
Description: as §4

[9] = test system: chronic myeloid leukaemia cell K562; experiment: cells; conditions: Homo sapiens, K562, 72 h, read-out: IC50 (nM) inhibition of K562 cell growth
[10] = test system: chronic myeloid leukaemia cell K562; experiment: MTS growth inhibition assay, K562 cell strain; format: cell-based; conditions: Homo sapiens, MTS/PMS, 72 hours
Description: (§5) This invention also tested the inhibitory activity of the compounds of this invention on the growth of chronic myeloid leukaemia cell K562, KU812, and MEG-01, acute myeloid leukaemia cell Kasumi-1 and acute lymphatic leukemia cell Sup-B15.
(§6) 1. Preparation of Assay Solution
(§7) (1) Preparation of PMS solution: PMS was dissolved in DPBS to give a concentration of […]. The solution was then filtered into a sterile and lightproof container;
(§8) (2) Preparation of MTS solution: a) 21 ml DPBS was added to a lightproof container; b) 42 mg MTS powder was weighted and then added to DPBS; c) the above were mixed on a electromagnetic stirrer until the powder was dissolved; d) the pH value was measured. […] If the pH was higher than 6.5, it should be adjust to 6.5 with 1 N HCl; e) the solution was filtered into a sterile and lightproof container; (3) Preparation of MTS/PMS mixture: a) 2 ml of the MTS solution was transferred to a tube; b) 100 μL of the PMS solution was added to the tube; c) the tube was vortexed gently to mix the solution thoroughly. 2. […] 3. […] 4.

[11] = test system: chronic myeloid leukaemia cell KU812; experiment: MTS growth inhibition assay, KU812 cell strain; format: cell-based; conditions: MTS/PMS, 72 hours
Description: as §5, §6, §7, §8

[12] = test system: chronic myeloid leukaemia cell MEG-01; experiment: MTS growth inhibition assay, MEG-01 cell strain; format: cell-based; conditions: MTS/PMS, 72 hours
Description: as §5, §6, §7, §8

[13] = test system: acute myeloid leukaemia cell Kasumi-1; experiment: MTS growth inhibition assay, Kasumi-1 cell strain; format: cell-based; conditions: Homo sapiens, MTS/PMS, 72 hours
Description: as §5, §6, §7, §8

[14] = test system: acute lymphatic leukemia cell Sup-B15; experiment: MTS growth inhibition assay, Sup-B15 cell strain; format: cell-based; conditions: MTS/PMS, 72 hours
Description: as §5, §6, §7, §8

[15] = test system: chronic myeloid leukaemia cell K562; conditions: read-out: IC50 (nM) inhibition of K562 cell growth; CellTiter-Glo; 72 hours

| IC50 [1] | IC50 [2] | Structure (SMILES) | other results |
| --- | --- | --- | --- |
| 22 nM | 17 nM | Cc1ccc(NC(=O)c2ccc3c(c2)CCC3N2CCN(C)CC2)cc1Nc1nccc(-c2cccnc2)n1 (stereo not shown) [EXAMPLE 1, 1-(4-methylpiperazin-1-yl)-N-(4-methyl-3-[(4-pyridin-3-ylpyrimidin-2-yl)amino]phenyl)-2,3-dihydro-1H-inden-5-carboxamide] | – |
| 16 nM | – | Cc1ccc(NC(=O)c2ccc3c(c2)CCC3N2CCNCC2)cc1Nc1nccc(-c2cccnc2)n1 (stereo not shown) [EXAMPLE 3, N-(4-methyl-3-[(4-pyridin-3-ylpyrimidin-2-yl)amino]phenyl)-1-piperazin-1-yl-2,3-dihydro-1H-indene-5-carboxamide] | – |
| 23 nM | 18 nM | Cc1ccc(NC(=O)c2ccc3c(c2)CCC3N2CCN(C(C)C)CC2)cc1Nc1nccc(-c2cccnc2)n1 (stereo not shown) [EXAMPLE 5, 1-(4-isopropylpiperazin-1-yl)-N-(4-methyl-3-[(4-pyridin-3-ylpyrimidin-2-yl)amino]phenyl)-2,3-dihydro-1H-indene-5-carboxamide] | – |
| 32 nM | 20 nM | Cc1ccc(NC(=O)c2ccc3c(c2)CCC3N2CCN(CCO)CC2)cc1Nc1nccc(-c2cccnc2)n1 (stereo not shown) [EXAMPLE 6] | – |
| 529 nM | 41 nM | CC(=O)N1CCN(C2CCc3cc(C(=O)Nc4ccc(C)c(Nc5nccc(-c6cccnc6)n5)c4)ccc32)CC1 (stereo not shown) [EXAMPLE 7, 1-[4-acetylpiperazin-1-yl)-N-(4-methyl-3-[(4-pyridin-3-ylpyrimidin-2-yl)amino]phenyl)-2,3-dihydro-1H-indene-5-carboxamide] | – |
| 51 nM | 15 nM | Cc1ccc(NC(=O)c2ccc3c(c2)CCC3N2CC[C@H](N(C)C)C2)cc1Nc1nccc(-c2cccnc2)n1 (stereo partly drawn) [EXAMPLE 9, 1-[(3S)-3-(dimethylamino)pyrrolidin-1-yl]-N-{4-methyl-3-[(4-pyridin-3-ylpyrimidin-2-yl)amino]phenyl}-2,3-dihydro-1H-indene-5-carboxamide] | – |

Further lines, the compound ahead of its results:

| Structure (SMILES) | IC50 [1] | IC50 [2] | other results |
| --- | --- | --- | --- |
| Cc1ccc(NC(=O)c2ccc3c(c2)CCC3N2CCN(C(=O)OC(C)(C)C)CC2)cc1Nc1nccc(-c2cccnc2)n1 (stereo not shown) [EXAMPLE 2, tert-butyl 4-{5-[({4-methyl-3-[(4-pyridin-3-ylpyrimidin-2-yl)amino]phenyl}amino)carbonyl)-2,3-dihydro-1-H-inden-1-yl}piperazin-1-carboxylate] | 1190 nM | 233 nM | – |
| Cc1ccc(NC(=O)c2ccc3c(c2)CCC3N2CCN(C)CC2)cc1Nc1nccc(-c2cncnc2)n1 (stereo not shown) [EXAMPLE 8, N-[3-(4,5′-bipyrimidine-2-ylamino)-4-methylphenyl]-1-(4-methylpiperazin-1-yl)-2,3-dihydro-1H-indene-5-carboxamide] | 32 nM | 22 nM | – |
| Cc1ccc(NC(=O)c2ccc3c(c2)CC[C@@H]3N2CCN(C)CC2)cc1Nc1nccc(-c2cccnc2)n1 [EXAMPLE 11, (1S)-1-(4-methylpiperazin-1-yl)-N-(4-methyl-3-[(4-pyridin-3-ylpyrimidin-2-yl)amino]phenyl)-2,3-dihydro-1H-indene-5-carboxamide] | 8.5 nM | 9.6 nM | IC50 [3]: 132 nM; IC50 [4]: 83.6 nM; IC50 [5]: 1740 nM; IC50 [6]: 2060 nM; IC50 [7]: 1.77 nM; IC50 [8]: 969 nM; IC50 [9]: 3.2 nM |
| Cc1ccc(NC(=O)c2ccc3c(c2)CC[C@H]3N2CCN(C)CC2)cc1Nc1nccc(-c2cccnc2)n1 [EXAMPLE 12, (1R)-1-(4-methylpiperazin-1-yl)-N-(4-methyl-3-[(4-pyridin-3-ylpyrimidin-2-yl)amino]phenyl)-2,3-dihydro-1H-indene-5-carboxamide] | 2250 nM | 53 nM | IC50 [9]: 208 nM |
| Cc1ccc(NC(=O)c2ccc3c(c2)CC[C@@H]3N2CCN(C)CC2)cc1Nc1nccc(-c2cncnc2)n1 [EXAMPLE 13, (1S)—N-[3-(4,5′-bipyrimidin-2-ylamino)-4-methylphenyl]-1-(4-methylpiperazin-1-yl)-2,3-dihydro-1H-indene-5-carboxamide] | 15 nM | 13 nM | IC50 [9]: 2.2 nM |
| Cc1ccc(NC(=O)c2ccc3c(c2)CC[C@H]3N2CCN(C)CC2)cc1Nc1nccc(-c2cncnc2)n1 [EXAMPLE 14, (1R)—N-[3-(4,5′-bipyrimidin-2-ylamino)-4-methylphenyl]-1-(4-methylpiperazin-1-yl)-2,3-dihydro-1H-indene-5-carboxamide] | 2260 nM | 65 nM | – |
| Cc1ccc(NC(=O)c2ccc3c(c2)CC[C@@H]3N2CCN(C)CC2)cc1Nc1nccc(-c2ccncc2)n1 [EXAMPLE 15, (1S)-1-(4-methylpiperazin-1-yl)-N-(4-methyl-3-[(4-pyridin-4-ylpyrimidin-2-yl)amino]phenyl)-2,3-dihydro-1H-indene-5-carboxamide] | 526 nM | 24 nM | IC50 [9]: 35 nM |
| Cc1ccc(NC(=O)c2ccc3c(c2)CC[C@@H]3N2CCN(C)CC2)cc1Nc1nccc(-c2cccnc2)n1 [EXAMPLE 16, (1S)-1-(4-methylpiperazin-1-yl)-N-(4-methyl-3-[(4-pyridin-3-ylpyrimidin-2-yl)amino]phenyl)-2,3-dihydro-1H-indene-5-carboxamide sulfate] | – | – | IC50 [10]: 0.25 nM; IC50 ([11]; Homo sapiens, KU812): 0.024 nM; IC50 ([12]; Homo sapiens, MEG-01): 0.085 nM; IC50 [13]: 11.2 nM; IC50 ([14]; Homo sapiens, SUP-B15): 39.6 nM |
| Cc1cn(-c2cc(NC(=O)c3ccc(C)c(Nc4nccc(-c5cccnc5)n4)c3)cc(C(F)(F)F)c2)cn1 [Nilotinib] | – | – | IC50 [10]: 6.26 nM; IC50 ([11]; Homo sapiens, KU812): 2.1 nM; IC50 ([12]; Homo sapiens, MEG-01): 1.65 nM; IC50 [13]: 22.3 nM; IC50 ([14]; Homo sapiens, SUP-B15): 135 nM |
| CN[C@@H]1C[C@H]2O[C@@](C)([C@@H]1OC)n1c3ccccc3c3c4c(c5c6ccccc6n2c5c31)C(=O)NC4 [Staurosporine] | – | – | IC50 [11]: 9.57 nM; IC50 [12]: 8.97 nM; IC50 [14]: 6.84 nM; IC50 [15]: 139 nM |
